Laboratory results from US20240116985A1, “STAPLED PEPTIDES AND METHODS THEREOF” (priority 2020, published 2024).
Converted amounts (≈) assume the structure as drawn. “And” between values parts separate entries of the source, which are not always exact repeats. Equal values may be shown once. Read-outs that look alike come from different tables or passages of the source.

What was measured:
[1] = target: T1, full-length beta-Catenin (Uniprot ID P35222) (Homo sapiens, UniProt P35222); assay: Fluorescence polarization IC50 (beta-catenin / 5FAM-TCF4 10-53 competition); type: binding
T1 construct: 10 nM full-length beta-Catenin (Uniprot ID P35222)
T1 sequence (P35222 1-781): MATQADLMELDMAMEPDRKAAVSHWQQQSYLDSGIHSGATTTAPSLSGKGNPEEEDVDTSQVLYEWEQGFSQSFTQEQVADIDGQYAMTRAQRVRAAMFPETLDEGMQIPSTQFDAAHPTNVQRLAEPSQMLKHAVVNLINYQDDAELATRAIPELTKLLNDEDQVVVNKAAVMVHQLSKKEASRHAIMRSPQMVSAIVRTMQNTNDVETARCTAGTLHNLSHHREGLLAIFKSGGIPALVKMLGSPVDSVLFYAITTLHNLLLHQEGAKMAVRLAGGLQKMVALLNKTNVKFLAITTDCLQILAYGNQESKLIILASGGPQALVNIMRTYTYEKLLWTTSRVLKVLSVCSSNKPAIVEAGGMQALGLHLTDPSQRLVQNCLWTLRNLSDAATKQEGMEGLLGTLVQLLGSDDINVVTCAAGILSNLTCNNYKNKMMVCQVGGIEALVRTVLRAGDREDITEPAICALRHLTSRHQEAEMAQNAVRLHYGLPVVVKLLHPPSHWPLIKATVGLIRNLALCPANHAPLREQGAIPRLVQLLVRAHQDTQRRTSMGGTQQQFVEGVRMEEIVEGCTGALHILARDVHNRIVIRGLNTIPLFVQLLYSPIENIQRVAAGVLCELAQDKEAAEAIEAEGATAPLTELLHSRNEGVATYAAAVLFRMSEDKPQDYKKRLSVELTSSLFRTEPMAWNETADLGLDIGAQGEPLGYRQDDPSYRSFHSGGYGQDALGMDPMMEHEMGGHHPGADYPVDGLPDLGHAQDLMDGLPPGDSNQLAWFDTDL

[2] = system: TCF/LEF luciferase Reporter in DLD1 cells; assay: TCF reporter assay (DLD1 TCF/LEF luciferase reporter, Bright-Glo); type: cell-based; conditions: for DLD1 TCF c2 BrightGlo % Inhibition: replicates
How it was run: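 DLD1 cells stably carrying a TCF/LEF luciferase reporter were plated at 5000 cells/well in RPMI + 4% FBS and treated overnight with a 1:2 compound dilution series. Bright-Glo luminescence read on day 3; viability by CellTiter-Glo. Absolute IC50 determined.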

Solubility in PBS = type: physicochemical
How it was run: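 HPLC quantitation of peptide remaining in the PBS supernatant after ultracentrifugation, referenced to a 50 μM solution in DMSO.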

[3] = target: T2, beta-catenin/TCF4 engagement (Homo sapiens, UniProt P35222); assay: Nano-BRET target engagement assay (B-cat-Halo & TCF4-Luc in HEK293 cells); type: cell-based
T2 construct: expressed in transfected cells; host or cells: HEK293
T2 sequence (P35222 1-781): T1 sequence (P35222 1-781)

CHI Log D procedure = type: physicochemical; conditions: for chromatographic logD: pH 7.4, CHI Log D; for CHI Log D: pH 7.4
[4] = fluorescence polarization, read-out: beta-Catenin FP IC50
[5] = absolute IC50, read-out: NanoBRET Abs IC50
[6] = absolute IC50, read-out: DLD1 reporter assay Abs IC50
[7] = read-out: DLD1 4% Abs IC50, DLD1 4%
[8] = fluorescence polarization, beta-catenin, read-out: FP EC50
[9] = Peptide + ST-Protein (SAINT-Protein lipid)

Solubility (Solubility in PBS) [µM]	IC50 [3, 5] [µM]	IC50 ([1]; read-out: beta-Catenin FP IC50) [µM]	IC50 [2, 6] [µM]	chromatographic logD (CHI Log D procedure)	IC50 ([3]; read-out: NanoBRET IC50) [µM]	IC50 [2, 7] [µM]	Solubility (Solubility in PBS; Solubility (uM)) [µM]	SMILES	also measured
10 (≈ 20.1 µg/mL)	4.2	–	–	–	–	–	–	CC(=O)N1CCC[C@]12CC=CCCCC1(CCCC=CCCCOC(=O)N3CC[C@@](C(=O)N[C@@H](Cc4ccccc4C(F)(F)F)C(=O)N[C@@H](Cc4csc5ccccc45)C(=O)N[C@@H](CCC(N)=O)C(N)=O)(C3)NC(=O)[C@H](Cc3ccccc3)NC(=O)[C@H](Cc3ccccc3)NC(=O)[C@H](C)NC(=O)[C@H](C)NC(=O)[C@H](CC(=O)O)NC(=O)[C@H](CC(=O)O)NC1=O)NC(=O)[C@H](CC(C)(C)C)NC(=O)[C@H](CC(=O)O)NC2=O (stereo partly drawn) [I-1319, Ac-PL3-Asp-Npg-B5-Asp-Asp-Ala-Ala-Phe-Phe-PyrS2-2F3MeF-BztA-Gln-NH2]	IC50 [1, 4]: 0.01 µM; IC50 ([2]; read-out: DLD1 4% Abs IC50, DLD1 reporter, 4%, absolute IC50): 2.1 µM
–	–	0.005	–	2.03	9	9	40 (≈ 76.2 µg/mL)	CC(=O)N1CCC[C@]12CC=CCCCC1(CCCC=CCCCOC(=O)N3CC[C@@](C(=O)N[C@@H](Cc4ccsc4)C(=O)N[C@@H](Cc4csc5ccccc45)C(=O)N[C@@H](CCC(N)=O)C(N)=O)(C3)NC(=O)[C@H](CCO)NC(=O)[C@H](Cc3ccccc3)NC(=O)[C@H](C)NC(=O)[C@H](C)NC(=O)[C@H](CC(=O)O)NC(=O)[C@H](CC(=O)O)NC1=O)NC(=O)[C@H](CC(C)(C)C)NC(=O)[C@H](CC(=O)O)NC2=O (stereo partly drawn) [I-803, Ac-PL3-Asp-Npg-B5-Asp-Asp-Ala-Ala-Phe-Hse-PyrS2-3Thi-BztA-Gln-NH2]	IC50 ([3]; read-out: NanoBRET Abs IC50): 9.6 µM
–	–	0.005	3.4	2.27	5.3	–	24 (≈ 46.8 µg/mL)	CC(=O)N1CCC[C@]12CC=CCCCC1(CCCC=CCCCOC(=O)N3CC[C@@](C(=O)N[C@@H](Cc4ccsc4)C(=O)N[C@@H](Cc4csc5ccccc45)C(=O)N[C@@H](CCC(N)=O)C(N)=O)(C3)NC(=O)[C@H](Cc3ccccc3)NC(=O)[C@H](Cc3ccccc3)NC(=O)[C@H](C)NC(=O)[C@H](C)NC(=O)[C@H](CC(=O)O)NC(=O)[C@H](CC(=O)O)NC1=O)NC(=O)[C@H](CC(C)(C)C)NC(=O)[C@H](CC(=O)O)NC2=O (stereo partly drawn) [I-807, Ac-PL3-Asp-Npg-B5-Asp-Asp-Ala-Ala-Phe-Phe-PyrS2-3Thi-BztA-Gln-NH2]	IC50 ([3]; read-out: NanoBRET Abs IC50): 3.2 µM
10 (≈ 19.7 µg/mL)	–	0.009	–	–	–	10.1	–	CCN(CC(=O)O)C[C@@H]1NC(=O)[C@H](CC(=O)O)NC(=O)C2(CCCC=CCCCOC(=O)N3CC[C@@](C(=O)N[C@@H](Cc4ccsc4)C(=O)N[C@@H](Cc4csc5ccccc45)C(=O)N[C@@H](CCC(N)=O)C(N)=O)(C3)NC(=O)[C@H](CC(C)C)NC(=O)[C@H](Cc3ccccc3)NC(=O)[C@H](C)NC(=O)[C@H](C)NC1=O)CCCC=CC[C@]1(CCCN1C(C)=O)C(=O)N[C@@H](CC(=O)O)C(=O)N[C@@H](CC(C)(C)C)C(=O)N2 (stereo partly drawn) [I-973, Ac-PL3-Asp-Npg-B5-Asp-EtGA-Ala-Ala-Phe-Leu-PyrS2-3Thi-BztA-Gln-NH2]	IC50 [1, 8]: 1.38 µM; CHI Log D (CHI Log D procedure): 1.95
–	> 20	7.22	> 20	1.89	–	–	–	CC(=O)N1CCC[C@]12CC=CCCCC1(CCCC=CCCCOC(=O)N3CC[C@@](C(=O)N[C@@H](CC(=O)O)C(=O)N[C@@H](Cc4csc5ccccc45)C(=O)N[C@@H](CCC(N)=O)C(N)=O)(C3)NC(=O)[C@H](CC(N)=O)NC(=O)[C@H](Cc3ccccc3)NC(=O)[C@H](C)NC(=O)[C@H](C)NC(=O)[C@H](CN(CC(=O)O)CC(F)(F)F)NC(=O)[C@H](Cc3ccsc3)NC1=O)NC(=O)[C@H](CC(C)(C)C)NC(=O)[C@H](CC(=O)O)NC2=O (stereo partly drawn) [I-1001, Ac-PL3-Asp-Npg-B5-3Thi-TfeGA-Ala-Ala-Phe-Asn-PyrS2-Asp-BztA-Gln-NH2]	IC50 [1, 8]: 5.53 µM; TCF Reporter Assay Abs IC50 (uM) [2, 9]: inactive; TCF Reporter Assay Abs IC50 (uM) ([2]; Peptide only): inactive; DLD1 TCF c2 BrightGlo % Inhibition ([2]; first dose = 20 uM (plate map), 20 µM): −1.2% and 7.5% and 3.5%; DLD1 TCF c2 BrightGlo % Inhibition ([2]; 0.625 µM): −1.5% and 9.3% and 4.5%; DLD1 TCF c2 BrightGlo % Inhibition ([2]; 1.25 µM): −7.0% and −2.8% and 6.1%; DLD1 TCF c2 BrightGlo % Inhibition ([2]; 2.5 µM): −8.0% and −7.6% and −5.0%; DLD1 TCF c2 BrightGlo % Inhibition ([2]; 10 µM): −3.6% and −4.8% and −7.4%; DLD1 TCF c2 BrightGlo % Inhibition ([2]; third dose = 5 uM (plate map), 5 µM): −6.7% (2×) and −0.7%; Nano-BRET Abs IC50 (uM) [3, 9]: inactive; Nano-BRET Abs IC50 (uM) ([3]; Peptide only): inactive

Continued, compound first:

SMILES	Solubility (Solubility in PBS) [µM]	IC50 [3, 5] [µM]	IC50 ([1]; read-out: beta-Catenin FP IC50) [µM]	IC50 [2, 6] [µM]	chromatographic logD (CHI Log D procedure)	IC50 ([3]; read-out: NanoBRET IC50) [µM]	IC50 [2, 7] [µM]	Solubility (Solubility in PBS; Solubility (uM)) [µM]	also measured
CC(=O)N1CCC[C@]12CC=CCCCC1(CCCC=CCCCOC(=O)N3CC[C@@](C(=O)N[C@@H](Cc4ccccc4Cl)C(=O)N[C@@H](Cc4csc5ccccc45)C(=O)N[C@@H](CO)C(N)=O)(C3)NC(=O)[C@H]([C@@H](C)O)NC(=O)[C@H](Cc3ccccc3)NC(=O)[C@H](C)NC(=O)[C@H](C)NC(=O)[C@H](CC(N)=O)NC(=O)[C@H](CC(=O)O)NC1=O)NC(=O)[C@H](CC(C)(C)C)NC(=O)[C@H](CC(=O)O)NC2=O (stereo partly drawn) [I-1016, Ac-PL3-Asp-Npg-B5-Asp-Asn-Ala-Ala-Phe-Thr-PyrS2-2ClF-BztA-Ser-NH2]	10 (≈ 18.9 µg/mL)	21.4	0.008	21.4	2.38	–	–	–	–
CC(=O)N1CCC[C@]12CC=CCCCC1(CCCC=CCCCCCC[C@@](C)(C(=O)N[C@@H](Cc3ccccc3)C(=O)N[C@@H](Cc3csc4ccccc34)C(=O)N[C@@H](CCC(N)=O)C(N)=O)NC(=O)[C@H](CCC(N)=O)NC(=O)[C@H](Cc3ccccc3)NC(=O)[C@H](C)NC(=O)[C@H](C)NC(=O)[C@H](CCC(=O)O)NC(=O)[C@H](CC(=O)O)NC1=O)NC(=O)[C@H](CC(C)C)NC(=O)[C@H](CC(=O)O)NC2=O (stereo partly drawn) [I-505, Ac-PL3-Asp-Leu-B5-Asp-Glu-Ala-Ala-Phe-Gln-S8-Phe-BztA-Gln-NH2]	50 (≈ 94.2 µg/mL)	4.9	–	–	–	5.6	–	–	IC50 [1, 4]: 0.023 µM; IC50 ([1]; read-out: FP EC50): 0.023 µM; IC50 ([2]; Abs IC50, read-out: DLD1 reporter assay Abs IC50): 10.8 µM; IC50 ([2]; read-out: DLD1 4% Abs IC50, DLD1 4%, absolute IC50): 9.4 µM; CHI Log D (CHI Log D procedure): 2.259; IC50 ([3]; Abs IC50, read-out: NanoBRET Abs IC50): 4.9 µM
CC(=O)N1CCC[C@]12CC=CCCCC1(CCCC=CCCCCCC[C@@](C)(C(=O)N[C@@H](Cc3ccccc3Cl)C(=O)N[C@@H](Cc3csc4ccccc34)C(=O)N[C@@H](CCC(N)=O)C(N)=O)NC(=O)[C@H](CCO)NC(=O)[C@H](Cc3ccccc3)NC(=O)[C@H](C)NC(=O)[C@H](C)NC(=O)[C@H](CN(CC(=O)O)CC(F)(F)F)NC(=O)[C@H](CC(=O)O)NC1=O)NC(=O)[C@H](CC(C)(C)C)NC(=O)[C@H](CC(=O)O)NC2=O (stereo partly drawn) [I-996, Ac-PL3-Asp-Npg-B5-Asp-TfeGA-Ala-Ala-Phe-Hse-S8-2C1F-BztA-Gln-NH2]	–	11.3	0.021	10.8	2.84	–	3.6	48 (≈ 96.1 µg/mL)	–
CC(=O)N1CCC[C@]12CC=CCCCC1(CCCC=CCCCCCC[C@@](C)(C(=O)N[C@@H](Cc3ccccc3Cl)C(=O)N[C@@H](Cc3csc4ccccc34)C(=O)N[C@@H](CCC(N)=O)C(N)=O)NC(=O)[C@H](CC(C)C)NC(=O)[C@H](Cc3ccccc3)NC(=O)[C@H](C)NC(=O)[C@H](C)NC(=O)[C@H](CC(=O)O)NC(=O)[C@H](CC(=O)O)NC1=O)NC(=O)[C@H](CC(C)(C)C)NC(=O)[C@H](CC(=O)O)NC2=O (stereo partly drawn) [I-1095, Ac-PL3-Asp-Npg-B5-Asp-Asp-Ala-Ala-Phe-Leu-S8-2C1F-BztA-Gln-NH2]	–	> 20	0.015	> 20	3.09	–	–	–	–
